Experimental data taken from PubChem BioAssay (NCI).
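How tested: cells in 96-well plates exposed to compound for 48 hours at five concentrations. GI50: concentration for 50% inhibition of growth. Definition used: TGI = concentration required for complete inhibition of growth.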

Experiments:
Assay in all cases: NCI tumour cell line growth inhibition, 48 h
786-0 renal = system: 786-0 renal
A498 renal = system: A498 renal
A549 NSCLC = system: A549 NSCLC
ACHN renal = system: ACHN renal
BT-549 breast = system: BT-549 breast
CAKI-1 renal = system: CAKI-1 renal
CCRF-CEM leukemia = system: CCRF-CEM leukemia
COLO 205 colon = system: COLO 205 colon
DU-145 prostate = system: DU-145 prostate
EKVX NSCLC = system: EKVX NSCLC
HCC-2998 colon = system: HCC-2998 colon
HCT-116 colon = system: HCT-116 colon
HCT-15 colon = system: HCT-15 colon
HL-60(TB) leukemia = system: HL-60(TB) leukemia
HOP-62 NSCLC = system: HOP-62 NSCLC
HOP-92 NSCLC = system: HOP-92 NSCLC
HS 578T breast = system: HS 578T breast
HT29 colon = system: HT29 colon
IGROV1 ovarian = system: IGROV1 ovarian
K-562 leukemia = system: K-562 leukemia
KM12 colon = system: KM12 colon
M14 melanoma = system: M14 melanoma
MALME-3M melanoma = system: MALME-3M melanoma
MCF7 breast = system: MCF7 breast
MDA-MB-231 breast = system: MDA-MB-231 breast
MDA-MB-435 = system: MDA-MB-435
MOLT-4 leukemia = system: MOLT-4 leukemia
NCI-H226 lung = system: NCI-H226 lung
NCI-H23 lung = system: NCI-H23 lung
NCI-H460 lung = system: NCI-H460 lung
NCI-H522 lung = system: NCI-H522 lung
NCI/ADR-RES ovarian = system: NCI/ADR-RES ovarian
OVCAR-3 ovarian = system: OVCAR-3 ovarian
OVCAR-4 ovarian = system: OVCAR-4 ovarian
OVCAR-5 ovarian = system: OVCAR-5 ovarian
OVCAR-8 ovarian = system: OVCAR-8 ovarian
PC-3 prostate = system: PC-3 prostate
RPMI-8226 leukemia = system: RPMI-8226 leukemia
RXF 393 renal = system: RXF 393 renal
SF-268 CNS = system: SF-268 CNS
SF-295 CNS = system: SF-295 CNS
SF-539 CNS = system: SF-539 CNS
SK-MEL-2 melanoma = system: SK-MEL-2 melanoma
SK-MEL-28 melanoma = system: SK-MEL-28 melanoma
SK-MEL-5 melanoma = system: SK-MEL-5 melanoma
SK-OV-3 ovarian = system: SK-OV-3 ovarian
SN12C renal = system: SN12C renal
SNB-19 CNS = system: SNB-19 CNS
SNB-75 CNS = system: SNB-75 CNS
SR leukemia = system: SR leukemia
SW-620 colon = system: SW-620 colon
T-47D breast = system: T-47D breast
TK-10 renal = system: TK-10 renal
U251 CNS = system: U251 CNS
UACC-257 melanoma = system: UACC-257 melanoma
UACC-62 melanoma = system: UACC-62 melanoma
UO-31 renal = system: UO-31 renal

`CCCCCCCCCCCCCC1=NCCN1CCO` showed a GI50 (786-0 renal) of 5.17 µM, a TGI (786-0 renal) of 11.2 µM and a GI50 (A498 renal) of 2.75 µM. For the same compound, the TGI (A498 renal) was 14.6 µM, the GI50 (A549 NSCLC) was 3.52 µM and the TGI (A549 NSCLC) was > 100 µM. The GI50 (ACHN renal) was 2.04 µM, the TGI (ACHN renal) was 4.68 µM and the GI50 (BT-549 breast) was 13.4 µM. The TGI (BT-549 breast) was 31.8 µM, the GI50 (CAKI-1 renal) was 2.34 µM and the TGI (CAKI-1 renal) was 7.27 µM. For the same compound, the GI50 (CCRF-CEM leukemia) was 10.5 µM, the TGI (CCRF-CEM leukemia) was > 100 µM and the GI50 (COLO 205 colon) was 2.11 µM. For the same compound, the TGI (COLO 205 colon) was 3.97 µM, the GI50 (DU-145 prostate) was 3.88 µM and the TGI (DU-145 prostate) was 15.7 µM. For the same compound, the GI50 (EKVX NSCLC) was 8.35 µM, the TGI (EKVX NSCLC) was 28.4 µM and the GI50 (HCC-2998 colon) was 4.03 µM. For the same compound, the TGI (HCC-2998 colon) was 16.5 µM, the GI50 (HCT-116 colon) was 2.3 µM and the TGI (HCT-116 colon) was 5.27 µM. It also gave a GI50 (HCT-15 colon) of 1.92 µM, a TGI (HCT-15 colon) of 4.77 µM and a GI50 (HL-60(TB) leukemia) of 3.11 µM. The TGI (HL-60(TB) leukemia) was > 100 µM, the GI50 (HOP-62 NSCLC) was 5.62 µM and the TGI (HOP-62 NSCLC) was 12.7 µM. It also gave a GI50 (HOP-92 NSCLC) of 3.65 µM, a TGI (HOP-92 NSCLC) of 23.6 µM and a GI50 (HS 578T breast) of 2.66 µM. For the same compound, the TGI (HS 578T breast) was 6.54 µM, the GI50 (HT29 colon) was 2.81 µM and the TGI (HT29 colon) was > 28.6 µM. For the same compound, the GI50 (IGROV1 ovarian) was 4.46 µM, the TGI (IGROV1 ovarian) was > 100 µM and the GI50 (K-562 leukemia) was 3.04 µM. The TGI (K-562 leukemia) was > 100 µM, the GI50 (KM12 colon) was 3 µM and the TGI (KM12 colon) was 9 µM. The GI50 (M14 melanoma) was 3.68 µM, the TGI (M14 melanoma) was 10.9 µM and the GI50 (MALME-3M melanoma) was 12.7 µM. For the same compound, the TGI (MALME-3M melanoma) was 30.5 µM, the GI50 (MCF7 breast) was 2.4 µM and the TGI (MCF7 breast) was 6.89 µM. It also gave a GI50 (MDA-MB-231 breast) of 3.04 µM, a TGI (MDA-MB-231 breast) of 8.28 µM and a GI50 (MDA-MB-435) of 2.97 µM. For the same compound, the TGI (MDA-MB-435) was 9.07 µM, the GI50 (MOLT-4 leukemia) was 4.11 µM and the TGI (MOLT-4 leukemia) was > 100 µM. The GI50 (NCI-H226 lung) was 17.5 µM, the TGI (NCI-H226 lung) was 41.2 µM and the GI50 (NCI-H23 lung) was 8.61 µM. The TGI (NCI-H23 lung) was 31.7 µM, the GI50 (NCI-H460 lung) was 2.13 µM and the TGI (NCI-H460 lung) was 4.63 µM. It also gave a GI50 (NCI-H522 lung) of 2.52 µM, a TGI (NCI-H522 lung) of 6.13 µM and a GI50 (NCI/ADR-RES ovarian) of 5 µM. The TGI (NCI/ADR-RES ovarian) was 21.2 µM, the GI50 (OVCAR-3 ovarian) was 2.73 µM and the TGI (OVCAR-3 ovarian) was 6.48 µM. The GI50 (OVCAR-4 ovarian) was 7.23 µM, the TGI (OVCAR-4 ovarian) was 39.8 µM and the GI50 (OVCAR-5 ovarian) was 5.47 µM. The TGI (OVCAR-5 ovarian) was 18.3 µM, the GI50 (OVCAR-8 ovarian) was 3.4 µM and the TGI (OVCAR-8 ovarian) was > 28.1 µM. The GI50 (PC-3 prostate) was 3.37 µM, the TGI (PC-3 prostate) was > 34.5 µM and the GI50 (RPMI-8226 leukemia) was 6.5 µM. For the same compound, the TGI (RPMI-8226 leukemia) was > 81.5 µM, the GI50 (RXF 393 renal) was 2.72 µM and the TGI (RXF 393 renal) was 7.43 µM. For the same compound, the GI50 (SF-268 CNS) was 2.83 µM, the TGI (SF-268 CNS) was 8.12 µM and the GI50 (SF-295 CNS) was 2.19 µM. It also gave a TGI (SF-295 CNS) of 6.18 µM, a GI50 (SF-539 CNS) of 1.95 µM and a TGI (SF-539 CNS) of 3.94 µM. The GI50 (SK-MEL-2 melanoma) was 2.86 µM, the TGI (SK-MEL-2 melanoma) was 9.01 µM and the GI50 (SK-MEL-28 melanoma) was 1.99 µM. For the same compound, the TGI (SK-MEL-28 melanoma) was 4.02 µM, the GI50 (SK-MEL-5 melanoma) was 3.26 µM and the TGI (SK-MEL-5 melanoma) was 11.2 µM. For the same compound, the GI50 (SK-OV-3 ovarian) was 7.04 µM, the TGI (SK-OV-3 ovarian) was 18.3 µM and the GI50 (SN12C renal) was 2.57 µM. It also gave a TGI (SN12C renal) of 6.47 µM, a GI50 (SNB-19 CNS) of 9.59 µM and a TGI (SNB-19 CNS) of 26.8 µM. The GI50 (SNB-75 CNS) was 2.3 µM, the TGI (SNB-75 CNS) was 8.16 µM and the GI50 (SR leukemia) was 3.75 µM. The TGI (SR leukemia) was > 100 µM, the GI50 (SW-620 colon) was 2.25 µM and the TGI (SW-620 colon) was 5.22 µM. The GI50 (T-47D breast) was 4.57 µM, the TGI (T-47D breast) was 13.1 µM and the GI50 (TK-10 renal) was 4.75 µM. The TGI (TK-10 renal) was 12.7 µM, the GI50 (U251 CNS) was 2.1 µM and the TGI (U251 CNS) was 4.95 µM. The GI50 (UACC-257 melanoma) was 12.6 µM, the TGI (UACC-257 melanoma) was 36.9 µM and the GI50 (UACC-62 melanoma) was 1.96 µM. The TGI (UACC-62 melanoma) was 3.95 µM, the GI50 (UO-31 renal) was 2.46 µM and the TGI (UO-31 renal) was 6.16 µM.
